Assay results reported in ChEMBL document CHEMBL6177968, “Development of sulfamoylbenzamide-based capsid assembly modulators for hepatitis B virus capsid assembly” (Eur J Med Chem, 2025).
The source made the active and inactive calls. The rule behind the calls is not given here.

What was measured:
[1] = AUClast in male mouse at 20 mg/kg, iv; assay type: ADME, organism-based; conditions: in vivo
Hepatitis B virus [2] = assay: Antiviral activity against HBV infected in human HepG2 cells expressing NTCP assessed as decrease in intracellular HBc level at 1 uM incubated for 6 days by indirect immunofluorescence staining based analysis; assay type: functional, organism-based; conditions: time 6.0 day
[3] = Cytotoxicity in mouse NIH3T3 cells; assay type: toxicity, cell-based
Hepatitis B virus [4] = assay: Antiviral activity against HBV infected in human HepG2 cells expressing NTCP assessed as viral DNA replication at 1 uM incubated for 6 days by Southern blot analysis (reference value: 100 %); assay type: functional; conditions: time 6 day
HepG2 [5] = assay: Effect on viral dslDNA level in human HepG2 cells expressing NTCP infected with HBV at 1 uM incubated for 6 days by Southern blot analysis; assay type: functional, cell-based; conditions: time 6.0 day
[6] = Half life in male mouse at 20 mg/kg, po; assay type: ADME, organism-based; conditions: in vivo
[7] = Cytotoxicity in African green monkey Vero cells; assay type: toxicity, cell-based, Chlorocebus sabaeus
[8] = Half life in male mouse at 5 mg/kg, iv; assay type: ADME, organism-based; conditions: in vivo
[9] = Cmax in male mouse at 20 mg/kg, po; assay type: ADME, organism-based; conditions: in vivo
Hepatitis B virus [10] = assay: Antiviral activity against HBV infected in human HepG2 cells expressing NTCP assessed as intracellular HBc level at 1 uM incubated for 6 days by Western blot analysis (reference value: 100 %); assay type: functional; conditions: time 6 day
[11] = Volume of distribution at steady state in male mouse at 20 mg/kg, iv; assay type: ADME, organism-based; conditions: in vivo, read-out: Vdss
[12] = Cytotoxicity in human HepaRG cells assessed as reduction in cell viability; assay type: toxicity, cell-based
[13] = Stability in human plasma assessed as compound remaining incubated for 4 hrs; assay type: ADME, cell-free; conditions: read-out: Stability
[14] = Clearance in male mouse at 20 mg/kg, iv; assay type: ADME, organism-based; conditions: in vivo
[15] = Cytotoxicity in CHO-K1 cells; assay type: toxicity, cell-based, Cricetulus griseus; conditions: Chinese hamster
[16] = target: Core antigen (Hepatitis B virus) (UniProt Q03732); assay: Binding affinity to HBV core protein dimers extracted from Escherichia coli assessed as retention volume at peak of capsid assembly by size exclusion chromatography (reference value: 8.63 mL)
Core antigen (Hepatitis B virus), sequence (Q03732 as listed by the source): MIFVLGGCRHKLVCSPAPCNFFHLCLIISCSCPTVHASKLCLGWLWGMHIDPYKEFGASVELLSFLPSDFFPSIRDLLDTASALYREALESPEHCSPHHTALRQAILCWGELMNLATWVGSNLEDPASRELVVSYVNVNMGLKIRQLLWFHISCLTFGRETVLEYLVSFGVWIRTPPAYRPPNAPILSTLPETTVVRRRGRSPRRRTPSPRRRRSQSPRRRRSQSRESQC

[17] = target: Core antigen (Hepatitis B virus) (UniProt Q03732); assay: Binding affinity to HBV core protein dimers extracted from Escherichia coli assessed as clump formation of assembled capsids by negative staining electron microscopic analysis
[18] = Tmax in male mouse at 5 mg/kg, po; assay type: ADME, organism-based; conditions: in vivo
Hepatitis B virus [19] = assay: Antiviral activity against HBV infected in human HepG2 cells expressing NTCP assessed as capsid associated HBV DNA level at 1 uM incubated for 6 days by Western blot analysis (reference value: 100 %); assay type: functional; conditions: time 6 day
Hepatitis B virus [20] = assay: Antiviral activity against HBV infected in human HepG2 cells expressing NTCP assessed as fold increase in intracellular capsid level at 1 uM incubated for 6 days by Western blot analysis relative to control; assay type: functional; conditions: time 6 day
Hepatitis B virus [21] = assay: Antiviral activity against HBV in human HepaRG cells assessed as reduction in viral replication; assay type: functional, organism-based
[22] = Oral bioavailability in male mouse at 5 mg/kg; assay type: ADME, organism-based; conditions: in vivo
[23] = Stability in mouse plasma assessed as compound remaining incubated for 4 hrs; assay type: ADME, cell-free; conditions: read-out: Stability
[24] = Volume of distribution at steady state in male mouse at 5 mg/kg, iv; assay type: ADME, organism-based; conditions: in vivo, read-out: Vdss
Cytochrome P450 3A4 = Cytochrome P450 3A4 (Homo sapiens, UniProt P08684); assay: Inhibition of CYP3A4 in human liver microsome; assay type: ADME, microsomes
Cytochrome P450 3A4, sequence (P08684 whole entry): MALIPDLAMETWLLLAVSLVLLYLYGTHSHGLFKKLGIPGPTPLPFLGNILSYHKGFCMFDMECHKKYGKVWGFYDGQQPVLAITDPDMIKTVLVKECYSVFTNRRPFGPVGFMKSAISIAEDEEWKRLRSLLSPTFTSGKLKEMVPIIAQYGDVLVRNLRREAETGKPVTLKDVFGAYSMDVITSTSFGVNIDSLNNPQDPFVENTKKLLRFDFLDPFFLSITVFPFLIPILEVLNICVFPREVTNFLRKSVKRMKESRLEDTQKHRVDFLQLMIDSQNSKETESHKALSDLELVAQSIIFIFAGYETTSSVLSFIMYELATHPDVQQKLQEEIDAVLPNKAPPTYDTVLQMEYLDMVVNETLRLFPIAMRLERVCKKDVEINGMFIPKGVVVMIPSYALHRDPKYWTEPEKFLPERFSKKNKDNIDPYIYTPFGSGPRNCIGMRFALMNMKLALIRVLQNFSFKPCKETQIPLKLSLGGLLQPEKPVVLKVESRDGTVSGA

Hepatitis B virus [25] = assay: Antiviral activity against HBV infected in human HepG2 cells expressing NTCP assessed as fold reduction in capsid associated viral DNA level at 1 uM incubated for 6 days by Southern blot analysis relative to control; assay type: functional; conditions: time 6 day
[26] = Cytotoxicity in HFL1 cells; assay type: toxicity, cell-based; conditions: human
Hepatitis B virus [27] = assay: Antiviral activity against HBV in human HepG2 cells expressing NTCP assessed as reduction in viral replication; assay type: functional, organism-based
[28] = Metabolic stability in human liver microsomes assessed as compound remaining measured after 30 mins; assay type: ADME, Microsome; conditions: read-out: Stability
Cytochrome P450 2C9 = Cytochrome P450 2C9 (Homo sapiens, UniProt P11712); assay: Inhibition of CYP2C9 in human liver microsome; assay type: ADME, microsomes
Cytochrome P450 2C9, sequence (P11712 whole entry): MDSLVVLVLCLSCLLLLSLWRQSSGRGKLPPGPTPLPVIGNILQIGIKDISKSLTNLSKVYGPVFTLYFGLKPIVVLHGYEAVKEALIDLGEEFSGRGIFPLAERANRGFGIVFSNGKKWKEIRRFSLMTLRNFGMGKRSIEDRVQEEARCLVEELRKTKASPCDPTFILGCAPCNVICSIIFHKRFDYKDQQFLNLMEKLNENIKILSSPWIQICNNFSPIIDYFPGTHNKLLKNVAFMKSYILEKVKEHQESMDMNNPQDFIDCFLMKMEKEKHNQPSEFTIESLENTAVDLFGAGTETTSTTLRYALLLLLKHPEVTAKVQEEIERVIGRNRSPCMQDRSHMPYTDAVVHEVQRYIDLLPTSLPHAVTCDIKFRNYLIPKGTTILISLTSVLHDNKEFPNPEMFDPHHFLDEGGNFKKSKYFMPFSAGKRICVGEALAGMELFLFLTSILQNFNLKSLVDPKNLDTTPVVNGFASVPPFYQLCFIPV

Hepatitis B virus [29] = assay: Antiviral activity against HBV infected in human HepG2 cells expressing NTCP assessed as ratio of capsid associated HBV DNA level at 1 uM incubated for 6 days by Western blot analysis (reference value: 100 %); assay type: functional; conditions: time 6 day
[30] = Metabolic stability in rat liver microsomes assessed as compound remaining measured after 30 mins; assay type: ADME, Microsome; conditions: read-out: Stability
[31] = Metabolic stability in mouse liver microsomes assessed as compound remaining measured after 30 mins; assay type: ADME, Microsome; conditions: read-out: Stability
[32] = Plasma protein binding in mouse; assay type: ADME, cell-free; conditions: read-out: PPB (converted)
[33] = Cytotoxicity in mouse L929 cells; assay type: toxicity, cell-based
[34] = AUClast in male mouse at 5 mg/kg, iv; assay type: ADME, organism-based; conditions: in vivo
Hepatitis B virus [35] = assay: Antiviral activity against HBV in human HepG2.2.15 cells assessed as reduction in viral replication incubated for 5 days by real-time PCR analysis; assay type: functional, organism-based; conditions: HepG2.2.15, 120 h
Cytochrome P450 2C19 = Cytochrome P450 2C19 (Homo sapiens, UniProt P33261); assay: Inhibition of CYP2C19 in human liver microsome; assay type: ADME, microsomes
Cytochrome P450 2C19, sequence (P33261 whole entry): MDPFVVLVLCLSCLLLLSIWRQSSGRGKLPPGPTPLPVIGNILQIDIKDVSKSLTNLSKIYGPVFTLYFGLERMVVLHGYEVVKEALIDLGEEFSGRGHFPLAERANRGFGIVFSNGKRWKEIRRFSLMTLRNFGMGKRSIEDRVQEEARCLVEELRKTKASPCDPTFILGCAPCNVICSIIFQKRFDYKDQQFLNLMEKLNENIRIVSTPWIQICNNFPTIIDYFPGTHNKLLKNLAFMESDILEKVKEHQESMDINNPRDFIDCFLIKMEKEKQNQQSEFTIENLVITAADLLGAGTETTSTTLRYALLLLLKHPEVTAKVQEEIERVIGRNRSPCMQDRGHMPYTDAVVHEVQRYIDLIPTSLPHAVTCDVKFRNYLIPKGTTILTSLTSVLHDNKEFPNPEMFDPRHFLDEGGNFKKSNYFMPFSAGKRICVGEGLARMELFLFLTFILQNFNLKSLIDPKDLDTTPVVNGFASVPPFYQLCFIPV

[36] = Cmax in male mouse at 5 mg/kg, po; assay type: ADME, organism-based; conditions: in vivo
HepG2 [37] = assay: Effect on viral rcDNA level in human HepG2 cells expressing NTCP infected with HBV at 1 uM incubated for 6 days by Southern blot analysis; assay type: functional, cell-based; conditions: time 6.0 day
[38] = AUClast in male mouse at 5 mg/kg, po; assay type: ADME, organism-based; conditions: in vivo
[39] = Clearance in male mouse at 5 mg/kg, iv; assay type: ADME, organism-based; conditions: in vivo
[40] = AUC (0 to infinity) in male mouse at 20 mg/kg, iv; assay type: ADME, organism-based; conditions: in vivo
[41] = Cytotoxicity in human HepG2-hNTCP cells assessed as reduction in cell viability; assay type: toxicity, cell-based
[42] = target: Voltage-gated inwardly rectifying potassium channel KCNH2 (Homo sapiens, UniProt Q12809); assay: Inhibition of human ERG; assay type: toxicity
Voltage-gated inwardly rectifying potassium channel KCNH2, sequence (Q12809 whole entry): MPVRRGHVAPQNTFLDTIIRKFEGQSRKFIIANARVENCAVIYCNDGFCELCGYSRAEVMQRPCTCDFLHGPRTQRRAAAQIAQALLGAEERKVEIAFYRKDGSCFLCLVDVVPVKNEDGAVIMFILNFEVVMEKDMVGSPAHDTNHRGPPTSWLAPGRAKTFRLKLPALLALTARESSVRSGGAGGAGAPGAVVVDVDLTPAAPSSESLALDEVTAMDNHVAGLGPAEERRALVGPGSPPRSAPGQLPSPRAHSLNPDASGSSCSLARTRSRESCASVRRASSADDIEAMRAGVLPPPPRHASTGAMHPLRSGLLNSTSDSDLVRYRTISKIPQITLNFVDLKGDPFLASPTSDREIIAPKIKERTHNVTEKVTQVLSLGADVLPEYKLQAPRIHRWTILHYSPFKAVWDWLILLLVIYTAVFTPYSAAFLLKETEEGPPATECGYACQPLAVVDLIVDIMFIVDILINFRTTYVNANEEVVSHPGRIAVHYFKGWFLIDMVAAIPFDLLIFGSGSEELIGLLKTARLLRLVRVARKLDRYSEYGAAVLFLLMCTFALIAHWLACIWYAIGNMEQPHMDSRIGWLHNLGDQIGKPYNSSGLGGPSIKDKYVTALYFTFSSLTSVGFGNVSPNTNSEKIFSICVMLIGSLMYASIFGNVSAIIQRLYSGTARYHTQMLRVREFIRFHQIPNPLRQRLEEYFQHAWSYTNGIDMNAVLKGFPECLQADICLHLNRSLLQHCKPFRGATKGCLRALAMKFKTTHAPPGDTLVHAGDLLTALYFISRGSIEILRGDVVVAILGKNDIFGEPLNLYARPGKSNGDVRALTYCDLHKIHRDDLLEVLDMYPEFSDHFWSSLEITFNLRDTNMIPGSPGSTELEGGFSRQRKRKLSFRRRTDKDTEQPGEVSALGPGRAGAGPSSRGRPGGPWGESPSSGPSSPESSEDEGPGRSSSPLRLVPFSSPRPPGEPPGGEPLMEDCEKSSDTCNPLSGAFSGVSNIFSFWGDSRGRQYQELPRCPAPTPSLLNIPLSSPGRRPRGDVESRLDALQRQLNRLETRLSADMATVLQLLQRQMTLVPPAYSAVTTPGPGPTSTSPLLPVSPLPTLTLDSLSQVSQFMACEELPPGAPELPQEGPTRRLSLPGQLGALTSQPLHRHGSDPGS

[43] = Half life in male mouse at 5 mg/kg, po; assay type: ADME, organism-based; conditions: in vivo
[44] = Tmax in male mouse at 20 mg/kg, po; assay type: ADME, organism-based; conditions: in vivo
Hepatitis B virus [45] = assay: Antiviral activity against HBV infected in human HepG2 cells expressing NTCP assessed as capsid level at 1 uM incubated for 6 days by Western blot analysis (reference value: 100 %); assay type: functional; conditions: time 6 day
Cytochrome P450 2D6 = Cytochrome P450 2D6 (Homo sapiens, UniProt P10635); assay: Inhibition of CYP2D6 in human liver microsome; assay type: ADME, microsomes
Cytochrome P450 2D6, sequence (P10635 whole entry): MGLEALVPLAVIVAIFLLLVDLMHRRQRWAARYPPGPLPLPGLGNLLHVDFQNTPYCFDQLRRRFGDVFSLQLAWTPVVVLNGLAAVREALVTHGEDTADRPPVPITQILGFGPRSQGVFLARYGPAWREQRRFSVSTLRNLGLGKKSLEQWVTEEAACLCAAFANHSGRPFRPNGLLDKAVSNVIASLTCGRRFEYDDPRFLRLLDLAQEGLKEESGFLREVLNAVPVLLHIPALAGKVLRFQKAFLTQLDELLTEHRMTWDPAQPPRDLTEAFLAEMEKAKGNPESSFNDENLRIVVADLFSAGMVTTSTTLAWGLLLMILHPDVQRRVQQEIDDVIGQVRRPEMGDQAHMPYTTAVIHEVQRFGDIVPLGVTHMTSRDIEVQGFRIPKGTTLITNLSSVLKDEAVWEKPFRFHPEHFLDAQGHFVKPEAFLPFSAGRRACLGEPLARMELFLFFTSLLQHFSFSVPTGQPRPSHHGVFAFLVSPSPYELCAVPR

[46] = AUC (0 to infinity) in male mouse at 20 mg/kg, po; assay type: ADME, organism-based; conditions: in vivo
[47] = Half life in male mouse at 20 mg/kg, iv; assay type: ADME, organism-based; conditions: in vivo
[48] = Selectivity index, ratio of CC50 for cytotoxicity in human HepG2.2.15 cells assessed as reduction in cell viability to EC50 for antiviral activity against HBV in human HepG2.2.15 cells assessed as reduction in viral replication; assay type: toxicity, cell-based; conditions: read-out: Ratio CC50/EC50
[49] = Cytotoxicity in human HepG2.2.15 cells assessed as reduction in cell viability; assay type: toxicity, cell-based, HepG2 2.2.15

**Q.** For `Nc1cc(F)c(S(=O)(=O)NC2COC2)cc1C(=O)Nc1ccc(F)c(C(F)F)c1`, which AUC(0-t) [1] is on record?
**A.** 4610 ng·h/mL

**Q.** And the Activity (Hepatitis B virus [2])?
**A.** Active; Compound Modestly Decreased Hbc Level

**Q.** And the IC50 [3]?
**A.** > 100 µM

**Q.** What about the Activity (Hepatitis B virus [4]) of the same compound?
**A.** 6%

**Q.** What about the Activity (HepG2 [5]) of the same compound?
**A.** No effect

**Q.** And the half-life [6]?
**A.** 52.2 min

**Q.** And the IC50 [7]?
**A.** > 100 µM

**Q.** And the half-life [8]?
**A.** 533 min

**Q.** And the Cmax [9]?
**A.** 370 ng/mL

**Q.** What about the Activity (Hepatitis B virus [10]) of the same compound?
**A.** 113%

**Q.** What about the Vd [11] of the same compound?
**A.** 46.5 L/kg

**Q.** And the CC50 [12]?
**A.** > 100 µM

**Q.** And the remaining at 4 h [13]?
**A.** 94%

**Q.** And the clearance [14]?
**A.** 65.5 mL/min/kg

**Q.** What about the IC50 [15] of the same compound?
**A.** > 100 µM

**Q.** What about the Activity [16] of the same compound?
**A.** 8.62 mL

**Q.** And the Activity [17]?
**A.** Active

**Q.** And the Tmax [18]?
**A.** 15 min

**Q.** What about the Activity (Hepatitis B virus [19]) of the same compound?
**A.** 14%

**Q.** And the “fold change (FC)” value (Hepatitis B virus [20])?
**A.** ~2

**Q.** What about the EC50 (Hepatitis B virus [21]) of the same compound?
**A.** 0.1 µM

**Q.** What about the bioavailability [22] of the same compound?
**A.** 66.2%

**Q.** What about the remaining at 4 h [23] of the same compound?
**A.** 94.5%

**Q.** What about the Vd [24] of the same compound?
**A.** 29.1 L/kg

**Q.** What about the IC50 (Cytochrome P450 3A4) of the same compound?
**A.** > 100 µM

**Q.** What about the “fold change (FC)” value (Hepatitis B virus [25]) of the same compound?
**A.** 16

**Q.** What about the IC50 [26] of the same compound?
**A.** > 100 µM

**Q.** And the EC50 (Hepatitis B virus [27])?
**A.** 0.02 µM

**Q.** What about the remaining at 0.5 h [28] of the same compound?
**A.** > 100%

**Q.** And the IC50 (Cytochrome P450 2C9)?
**A.** > 100 µM

**Q.** And the Ratio (Hepatitis B virus [29])?
**A.** 6%

**Q.** And the remaining at 0.5 h [30]?
**A.** 45.4%

**Q.** And the remaining at 0.5 h [31]?
**A.** 56.8%

**Q.** And the fraction unbound [32]?
**A.** 0.143

**Q.** What about the IC50 [33] of the same compound?
**A.** > 100 µM

**Q.** What about the AUC(0-t) [34] of the same compound?
**A.** 850 ng·h/mL

**Q.** And the EC50 (Hepatitis B virus [35])?
**A.** 0.05 µM

**Q.** And the IC50 (Cytochrome P450 2C19)?
**A.** > 100 µM

**Q.** And the Cmax [36]?
**A.** 540 ng/mL

**Q.** And the Activity (HepG2 [37])?
**A.** No effect

**Q.** And the AUC(0-t) [38]?
**A.** 560 ng·h/mL

**Q.** And the clearance [39]?
**A.** 92.7 mL/min/kg

**Q.** What about the AUC(0-inf) [40] of the same compound?
**A.** 5460 ng·h/mL

**Q.** What about the CC50 [41] of the same compound?
**A.** 63.2 µM

**Q.** And the IC50 [42]?
**A.** > 10 µM

**Q.** And the half-life [43]?
**A.** 55.2 min

**Q.** What about the Tmax [44] of the same compound?
**A.** 25.2 min

**Q.** What about the Activity (Hepatitis B virus [45]) of the same compound?
**A.** 205%

**Q.** What about the IC50 (Cytochrome P450 2D6) of the same compound?
**A.** > 100 µM

**Q.** What about the AUC(0-inf) [46] of the same compound?
**A.** 280 ng·h/mL

**Q.** And the half-life [47]?
**A.** 576 min

**Q.** And the selectivity ratio [48]?
**A.** > 17500

**Q.** What about the CC50 [49] of the same compound?
**A.** > 900 µM
